# In patent EP0058890A1, “Antithrombotic compounds” (THE WELLCOME FOUNDATION LIMITED, priority 1981, dated 1982):
# Read-outs that look alike come from different tables or passages of the source.
# Assays:
# [1] = system: platelets; test: Ex vivo platelet aggregation after oral dosing, arachidonate and collagen (method of Born), guinea pig; format: in vivo; settings: Cavia porcellus, read-out: dose required to inhibit aggregation rate by 50% (ED50)
# Procedure: (§1) b. Ex vivo studies: The aggregation of platelets taken from animals dosed by the oral route with Compound II is inhibited when tested with arachidonate and collagen by the method of Born ((1962) Nature 194, 927, 929). The dose required to inhibit aggregation rate by 50% (ED50) at 1 hour was 5 mg/kg and 10 mg/kg in the guinea pig and rat, respectively. By comparison, the ED50 for aspirin in the guinea pig was 30 mg/kg, while the ED50 for aspirin in the rat was 10 mg/kg. The ED50 for indomethacin was 10 mg/kg and 5 mg/kg in the guinea pig and rat, respectively. In the dog, 10 mg/kg p.o. was an ED50 for as long as 6 hr.
# [2] = system: platelets; test: Ex vivo platelet aggregation after oral dosing, arachidonate and collagen (method of Born), rat; format: in vivo; settings: read-out: dose required to inhibit aggregation rate by 50% (ED50)
# Procedure: as §1
# [3] = system: dog platelets; test: Ex vivo platelet aggregation after oral dosing, dog; format: in vivo; settings: Canis lupus familiaris, for as long as 6 hr
# Procedure: as §1
# [4] = system: exudate fluid volume; test: Carrageenin Pleurisy Assay (Acute); format: in vivo, rat; settings: 3 h, read-out: 3 hr. ED50 against exudate fluid volume
# Description: a. […] In this assay, the 3 hr.
# [5] = system: adjuvant arthritis; test: Adjuvant Arthritis Assay (Chronic); format: in vivo, rat; settings: po, 336 h, read-out: ED50, development of adjuvant arthritis
# [6] = system: subplantar injection of trypsin; test: Modified Trypsin Hyperalgesic Assay; format: in vivo; settings: drug administration 15 minutes before subplantar trypsin
# [7] = system: gastric damage; format: in vivo; settings: rat
# [8] = system: gastric erosion; format: in vivo; settings: guinea pig
# [9] = system: stasis-induced jugular vein thrombosis; test: Protection against stasis-induced jugular vein thrombosis; format: in vivo; settings: guinea pig; given 1 hour prior to ligation
# Procedure: b. Protection against stasis-induced jugular vein thrombosis: When a 1 cm length of guinea pig jugular vein is ligated in situ, a thrombus forms within 30 min. Six mg/kg p.o. of either Compound II or aspirin given 1 hour prior to ligation protected 50% of the animals from thrombosis.
# [10] = system: Yeast-induced hyperthermia; test: Yeast-Induced Hyperthermia Assay; format: in vivo, rat
Structure (SMILES),"ED50 ([1]; guinea pig, oral route, at 1 hour, arachidonate and collagen)","ED50 ([2]; rat, oral route, at 1 hour, arachidonate and collagen)",ED50 [3],"ED50 ([4]; rat, oral route)","ED50 ([5]; rat, by gavage for 14 days)",ED50 ([6]; read-out: ED50),"gastric damage ([7]; in vivo, po, 75 mg/kg/day)","gastric damage ([7]; in vivo, po, 150 mg/kg)","gastric damage ([8]; in vivo, po, 100 mg/kg/day)","ED50 ([1]; po, 1 h)","ED50 ([2]; Rattus norvegicus, po, 1 h)",dose that protected 50% of the animals from thrombosis [9],"ED50 ([4]; Rattus norvegicus, po)",ED50 ([5]; Rattus norvegicus),ED50 [6],"ED50 ([10]; Rattus norvegicus, po)","hypothermia ([10]; rat, for Compound II 3-4 hours after dosing)",gastric damage ([7]; single oral dose of 30 mg/kg),gastric damage ([8]; 100 mg/kg/day p.o. for 3 days),gastric damage ([7]; single oral dose of 5 mg/kg)
CN(C)CCOc1ccccc1-c1nc(-c2ccccc2)c(-c2ccccc2)[nH]1 [Compound II],5 mg/kg,10 mg/kg,10 mg/kg,37 mg/kg,294 mg/kg,~50 mg/kg,does not produce gastric damage,does not produce gastric damage,very slight gastric erosion,–,–,–,–,–,–,–,–,–,–,–
CC(=O)Oc1ccccc1C(=O)O [aspirin],–,–,–,–,–,–,–,–,–,30 mg/kg,10 mg/kg,Six,28 mg/kg,175 mg/kg,inactive,50 mg/kg,does not produce hypothermia,produces ulcers and hemorrhages,severe ulceration and hemorrhage,–
COc1ccc2c(c1)c(CC(=O)O)c(C)n2C(=O)c1ccc(Cl)cc1 [indomethacin],–,–,–,–,–,–,–,–,–,10 mg/kg,5 mg/kg,–,2 mg/kg,1 mg/kg,inactive,–,–,–,–,produces ulcers
